Literature values as cited in patent US8617286B2, “Method for increasing crop yield” (priority 2010, dated 2013).

Tested on: nitrification of ammonia nitrogen into nitrate
Conditions: general statement, no test described

In the case of `N#CN=C(N)N` [DCD, dicyandiamide], the “slowing of nitrification of ammonia nitrogen into nitrate” value is listed as “about 80%”.
